From article PMC7881583, “Novel fusion peptide‐mediated siRNA delivery using self‐assembled nanocomplex” (Journal of Nanobiotechnology, 2021)

System: GAPDH mRNA
Test: GAPDH mRNA knockdown by quantitative RT-PCR, HaCaT
Assay type: cell-based
Conditions: HaCaT cells, 200 nM GAPDH-siRNA delivered with carrier (peptide 20:1 N/P) 5 h; qRT-PCR, ΔΔCt vs β-actin; n ≥ 3
Method: Fig. 5 Gene silencing activity and cell viability of fusion peptides: a Target GAPDH mRNA knockdown in HeLa and HaCaT by siRNA/peptide nanocomplexes was verified using quantitative RT-PCR. GAPDH-siRNAs of the final 200 nM concentration were delivered into each of the 1.0 × 10^5 HeLa cells in a 24-well plate using Lipofectamine™ 2000 as a commercialized positive control, SPACE, R11, S-R7, S-R11, and S-R15 (20:1 N/P ratio) for 5 h. 100 ng of total RNAs isolated from cells were reverse-transcribed into cDNA. 10 ng of cDNA were used for the PCR reaction with GAPDH-specific forward and reverse primers. Relative mRNA expression levels were calculated using the ΔΔCt method based on the housekeeping β-actin expression level. […] Released LDH activities were measured from 8.0 × 10^3 HDFn cells under each fusion peptide at different concentrations (0, 0.0125, 0.025, 0.05, 0.1, and 0.2 mg/mL) in a 96-well plate using an LDH assay. […] The p-value was calculated using a t-test.
GAPDH mRNA expression reduced by nanocomplex was checked using quantitative real-time PCR. […] The concentration and purity of purified RNA were measured using the Take3 plate as a nanodrop mode of a microplate reader (Epoch 2; BioTek Instruments, Inc., VT, USA). […] GAPDH mRNA expression was analyzed using the QuantStudio 3 real-time PCR system (Applied Biosystems, CA, USA). […]

ACTGSTQHQCGGCGRRRRRRRRRRRRRRR [S-R15]
knockdown of relative GAPDH mRNA expression compared to free siRNA: 50.2%
